# Assay results reported in patent US8247211B2, “Glycopeptide antibiotics” (American Cyanamid Company, priority 2001, dated 2012).
# Tests used:
# Test in all cases: In vitro antibacterial evaluation: minimum inhibitory concentration (MIC), broth dilution method
# Format in all cases: cell-based
# Enterococcus sp. = settings: broth dilution, 5×10^5 CFU/mL, 18 hours at 35° C.
# Procedure: (§1) The minimum inhibitory concentration (MIC), the lowest concentration of the antibiotic which inhibits growth of the test organism, is determined by the broth dilution method using Muller-Hinton II […] (Baltimore Biological Laboratories) following the recommendations of the National Committee for Clinical Laboratory Standards [Methods for dilution antimicrobial susceptibility tests for bacteria that grow aerobically, approved standard M7-A2, National Committee for Clinical Laboratory Standards, Villanova, Pa].
# (§2) An inoculum level of 5×10^5 CFU/mL, and a range of antibiotic concentrations (64-0.06 μg/mL) is used. […] The test organisms include a spectrum of Gram-positive bacteria comprised of Staphylococcus sp., Streptococcus sp. and Enterococcus sp. These organisms include recent clinical isolates that are resistant to methicillin, penicillin and/or vancomycin.
# Escherichia coli = settings: 5×10^5 CFU/mL, 18 hours at 35° C.
# Procedure: as §1, §2
# Staphylococcus sp. = settings: for MIC Staphylococcus aureus (ATCC 29213): strain ATCC 29213; for MIC Staphylococcus aureus (GC 1131): strain GC 1131; for MIC Staphylococcus aureus (GC 3051): strain GC 3051; for MIC Staphylococcus aureus (GC 3053): strain GC 3053; for MIC Staphylococcus aureus (GC 4541): strain GC 4541; for MIC Staphylococcus aureus (GC 4542): strain GC 4542; for MIC Staphylococcus aureus-SMITH (GC 4543): strain GC 4543; for MIC Staphylococcus aureus (GC 4544): strain GC 4544; for MIC Staphylococcus aureus (GC 4545): strain GC 4545; for MIC Staphylococcus haemolyticus (GC 4546): strain GC 4546; for MIC Coagulase Negative Staphylococcus (GC 4547): strain GC 4547; for MIC Coagulase Negative Staphylococcus (GC 4548): strain GC 4548; for MIC Coagulase Negative Staphylococcus (GC 4549): strain GC 4549; for MIC Coagulase Negative Staphylococcus (GC 4551): strain GC 4551
# Procedure: as §1, §2
# Streptococcus sp. = settings: broth dilution, 5×10^5 CFU/mL, 18 hours at 35° C.
# Procedure: as §1, §2
# [1] = broth dilution, 18 hours at 35° C.
SMILES,MIC Enterococccus avium (GC 4558) (Enterococcus sp.) [µg/mL],MIC Enterococccus faecalis (ATCC 29212) (Enterococcus sp.) [µg/mL],MIC Enterococccus faecalis (GC 2691) (Enterococcus sp.) [µg/mL],MIC Enterococccus faecalis (GC 3059) (Enterococcus sp.) [µg/mL],MIC Enterococccus faecalis (GC 4552) (Enterococcus sp.) [µg/mL],MIC Enterococccus faecalis (GC 4553) (Enterococcus sp.) [µg/mL],MIC Enterococccus faecalis (GC 4554) (Enterococcus sp.) [µg/mL],MIC Enterococccus faecalis (GC 6189) (Enterococcus sp.) [µg/mL],MIC Enterococccus faecium (GC 2243) (Enterococcus sp.) [µg/mL],MIC Enterococccus faecium (GC 4556) (Enterococcus sp.) [µg/mL],MIC Enterococccus faecium (GC 4557) (Enterococcus sp.) [µg/mL],MIC Enterococcus faecalis (GC 2242) (Enterococcus sp.) [µg/mL],MIC Escherichia coli (ATCC 25922) (Escherichia coli) [µg/mL],MIC Escherichia coli (GC 4559) (Escherichia coli) [µg/mL],MIC Escherichia coli (GC 4560) (Escherichia coli) [µg/mL],MIC Staphylococcus aureus (ATCC 29213) (Staphylococcus sp.) [µg/mL],MIC Staphylococcus aureus (GC 1131) (Staphylococcus sp.) [µg/mL],MIC Staphylococcus aureus (GC 3051) (Staphylococcus sp.) [µg/mL],MIC Staphylococcus aureus (GC 3053) (Staphylococcus sp.) [µg/mL],MIC Staphylococcus aureus (GC 4541) (Staphylococcus sp.) [µg/mL],also measured
"N=C1NCC(C(O)C2NC(=O)C(Cc3ccc(OC4OC(CO)C(OC5OC(CO)C(O)C6OC7(OC56)C5CC6CC(C5)CC7C6)C(O)C4O)cc3)NC(=O)C(CC3CCCCC3)NC(=O)CNC(=O)C(CO)NC(=O)C(C(O)C3CNC(=N)N3C3OC(CO)C(O)C(O)C3O)NC2=O)N1 (centres unmarked) [Example 106a, Cyclo[3-cyclohexylalanyl-O-[4-O-[2,3-O-(2-adamantylidene)hexopyranosyl]hexopyranosyl]-tyrosyl-3-(2-iminoimidazolidin-4-yl)seryl-3-(3-hexopyranosyl-2-iminoimidazolidin-4-yl)-serylserylglycyl]]",4,8,4,8,4,4,8,4,4,8,2,4,32,32,2,2,2,2,2,2,MIC Staphylococcus aureus (GC 4542) (Staphylococcus sp.): 2 µg/mL; MIC Staphylococcus aureus-SMITH (GC 4543) (Staphylococcus sp.; 18 hours at 35° C.): 2 µg/mL; MIC Staphylococcus aureus-SMITH (GC 4543) (Staphylococcus sp.; [1]): 2 µg/mL; MIC Staphylococcus aureus (GC 4544) (Staphylococcus sp.): 4 µg/mL; MIC Staphylococcus aureus (GC 4545) (Staphylococcus sp.): 2 µg/mL; MIC Staphylococcus haemolyticus (GC 4546) (Staphylococcus sp.): 2 µg/mL; MIC Staphylococcus haemolyticus (GC 4546) (Staphylococcus sp.; [1]): 2 µg/mL; MIC Coagulase Negative Staphylococcus (GC 4547) (Staphylococcus sp.): 2 µg/mL; MIC Coagulase Negative Staphylococcus (GC 4547) (Staphylococcus sp.; [1]): 2 µg/mL; MIC Coagulase Negative Staphylococcus (GC 4548) (Staphylococcus sp.): 1 µg/mL; MIC Coagulase Negative Staphylococcus (GC 4548) (Staphylococcus sp.; [1]): 1 µg/mL; MIC Coagulase Negative Staphylococcus (GC 4549) (Staphylococcus sp.): 1 µg/mL; MIC Coagulase Negative Staphylococcus (GC 4549) (Staphylococcus sp.; [1]): 1 µg/mL; MIC Coagulase Negative Staphylococcus (GC 4551) (Staphylococcus sp.): 2 µg/mL; MIC Coagulase Negative Staphylococcus (GC 4551) (Staphylococcus sp.; [1]): 2 µg/mL; MIC Streptococcus agalactiae (GC 4564) (Streptococcus sp.): 0.25 µg/mL; MIC Streptococcus pneumoniae (GC 1894) (Streptococcus sp.): <0.06 µg/mL; MIC Streptococcus pneumoniae (GC 4565) (Streptococcus sp.): <0.06 µg/mL; MIC Streptococcus pneumonine (ATCC 6301) (Streptococcus sp.): 0.12 µg/mL; MIC Streptococcus pyogenes (GC 4563) (Streptococcus sp.): 0.25 µg/mL
N=C1NCC(C(O)C2NC(=O)C(Cc3ccc(OC4OC(CO)C(OC5OC6COC7(OC6C6OC8(OC56)C5CC6CC(C5)CC8C6)C5CC6CC(C5)CC7C6)C(O)C4O)cc3)NC(=O)C(CC3CCCCC3)NC(=O)CNC(=O)C(CO)NC(=O)C(C(O)C3CNC(=N)N3C3OC(CO)C(O)C(O)C3O)NC2=O)N1 (centres unmarked) [Example 106b],4,8,16,16,8,8,16,8,8,8,4,8,64,32,8,8,8,8,8,16,MIC Staphylococcus aureus (GC 4542) (Staphylococcus sp.): 8 µg/mL; MIC Staphylococcus aureus-SMITH (GC 4543) (Staphylococcus sp.; 18 hours at 35° C.): 8 µg/mL; MIC Staphylococcus aureus-SMITH (GC 4543) (Staphylococcus sp.; [1]): 8 µg/mL; MIC Staphylococcus aureus (GC 4544) (Staphylococcus sp.): 16 µg/mL; MIC Staphylococcus aureus (GC 4545) (Staphylococcus sp.): 8 µg/mL; MIC Staphylococcus haemolyticus (GC 4546) (Staphylococcus sp.): 4 µg/mL; MIC Staphylococcus haemolyticus (GC 4546) (Staphylococcus sp.; [1]): 4 µg/mL; MIC Coagulase Negative Staphylococcus (GC 4547) (Staphylococcus sp.): 8 µg/mL; MIC Coagulase Negative Staphylococcus (GC 4547) (Staphylococcus sp.; [1]): 8 µg/mL; MIC Coagulase Negative Staphylococcus (GC 4548) (Staphylococcus sp.): 4 µg/mL; MIC Coagulase Negative Staphylococcus (GC 4548) (Staphylococcus sp.; [1]): 4 µg/mL; MIC Coagulase Negative Staphylococcus (GC 4549) (Staphylococcus sp.): 4 µg/mL; MIC Coagulase Negative Staphylococcus (GC 4549) (Staphylococcus sp.; [1]): 4 µg/mL; MIC Coagulase Negative Staphylococcus (GC 4551) (Staphylococcus sp.): 8 µg/mL; MIC Coagulase Negative Staphylococcus (GC 4551) (Staphylococcus sp.; [1]): 8 µg/mL; MIC Streptococcus agalactiae (GC 4564) (Streptococcus sp.): 0.5 µg/mL; MIC Streptococcus pneumoniae (GC 1894) (Streptococcus sp.): <0.12 µg/mL; MIC Streptococcus pneumoniae (GC 4565) (Streptococcus sp.): 0.5 µg/mL; MIC Streptococcus pneumonine (ATCC 6301) (Streptococcus sp.): 0.5 µg/mL; MIC Streptococcus pyogenes (GC 4563) (Streptococcus sp.): 0.5 µg/mL
